Patent US9492403B2, “Method of treating overactive bladder, not due to cancer, by administering at least one jasmonate” (Broady Health Sciences, LLC, priority 2010, dated 2016)

Test: Study in five subjects with urinary bladder dysfunction symptoms taking Jasmone once a day for 30 days
Assay type: in vivo, human
Description: Five subjects, 4 male and 1 female agreed to participate in the study. Subjects ranged in age from 55-73 with average age being 67. All participants experienced noticeable urinary bladder dysfunction symptoms including frequency, urgency, and reduced urine flow. Subjects took from 50 to 100 micrograms of Jasmone once a day for 30 days. At two weeks approximately ½ of the subjects experienced improved bladder function. […] For example, several subjects noted that before treatment they averaged 2 night time awakenings to urinate which was reduced to 1 or 0 subsequent to taking Jasmone. Other subjects had even greater improvement from an average of 3-4 night awakenings to urinate to 1. […] In addition several male subjects reported increased flow of discharge up to 100%.

CC/C=C\CC1=C(C)CCC1=O [Jasmone]
reduction of daytime bathroom visits (50 to 100 micrograms once a day for 30 days): approximately 50% | fraction of subjects who experienced improved bladder function (at two weeks, 50 to 100 micrograms of Jasmone once a day, five subjects aged 55-73): approximately ½ | subject-reported improvements in frequency, urgency, and urine flow (by day thirty, 50 to 100 micrograms once a day): all subjects reported improvements in frequency, urgency, and urine flow | night awakenings to urinate after treatment (other subjects, average of 3-4 before treatment): 1 | increased flow of discharge (several male subjects): up to 100% | "holding time" (urgency) after treatment (several patients, from approximately 10 minutes before treatment, i.e. during extended air travel): ~60 min
